# Results: paper PMC9653166 (Journal of medicinal chemistry, 2022)
# pEC50: −log10 of the molar value. Where “and” joins values, the source holds several entries; their conditions need not be identical. Equal values may be shown once. Entries after “also recorded” stand apart in the source; their conditions may differ.
# What was measured:
# [1] = target: T1, Sirt3 (Homo sapiens, UniProt Q9NTG7); test: Coupled enzymatic deacetylation assay, Sirt3 with ACS2-acK642 peptide; assay type: biochemical; settings: for Effect on Sirt3 activity (in words): coupled assay, ACS2 peptide, 10 and 100 μM compound
# T1 sequence (Q9NTG7 114-380): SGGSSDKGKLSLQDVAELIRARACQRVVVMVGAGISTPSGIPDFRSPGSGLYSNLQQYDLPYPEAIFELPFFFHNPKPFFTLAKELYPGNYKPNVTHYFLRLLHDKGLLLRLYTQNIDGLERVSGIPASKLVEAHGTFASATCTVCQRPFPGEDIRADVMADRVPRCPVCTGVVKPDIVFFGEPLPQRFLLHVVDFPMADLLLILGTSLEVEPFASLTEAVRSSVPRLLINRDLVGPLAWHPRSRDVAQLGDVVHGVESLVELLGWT
# [2] = target: T2, Sirt5 (Homo sapiens, UniProt Q9NXA8); test: Coupled enzymatic desuccinylation assay, Sirt5 with CPS1-succK537 peptide; assay type: biochemical; settings: for Effect on Sirt5 activity (in words): coupled assay, 10 and 100 μM compound
# T2 sequence (Q9NXA8 34-302): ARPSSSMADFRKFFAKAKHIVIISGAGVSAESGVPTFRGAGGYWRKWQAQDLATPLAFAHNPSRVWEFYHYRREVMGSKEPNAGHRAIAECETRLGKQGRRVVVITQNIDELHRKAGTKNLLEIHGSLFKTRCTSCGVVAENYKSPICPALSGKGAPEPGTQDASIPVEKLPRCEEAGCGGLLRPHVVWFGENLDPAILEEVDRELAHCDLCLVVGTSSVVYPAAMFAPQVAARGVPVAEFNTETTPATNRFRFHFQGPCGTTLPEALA
# [3] = system: MnSOD-Lys68 acetylation; test: MnSOD-Lys68 acetylation Western blot in MDA-MB-231 cells; assay type: cell-based, human
# [4] = target: T3, Sirt3 (Homo sapiens, UniProt Q9NTG7); test: Cellular SIRT3 deacetylase activity assay; assay type: cell-based; settings: MDA-MB-231 cells, 50 and 100 μM, 3 h
# T3 sequence (Q9NTG7 1-399): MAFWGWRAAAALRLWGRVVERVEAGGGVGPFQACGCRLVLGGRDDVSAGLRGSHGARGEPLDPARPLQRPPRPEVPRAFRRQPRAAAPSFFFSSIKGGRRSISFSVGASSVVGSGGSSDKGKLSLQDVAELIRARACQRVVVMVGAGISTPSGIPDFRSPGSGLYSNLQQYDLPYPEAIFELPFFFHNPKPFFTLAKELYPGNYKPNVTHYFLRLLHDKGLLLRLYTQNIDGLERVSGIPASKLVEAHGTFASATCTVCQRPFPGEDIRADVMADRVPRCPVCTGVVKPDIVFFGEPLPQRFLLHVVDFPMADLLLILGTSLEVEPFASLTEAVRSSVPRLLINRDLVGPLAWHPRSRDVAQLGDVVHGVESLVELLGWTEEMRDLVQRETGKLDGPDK
# [5] = system: GDH acetylation; test: GDH immunoprecipitation and Lys acetylation Western blot, MDA-MB-231 cells; assay type: cell-based, human; settings: 50 μM
# [6] = target: T4, Sirt5 (Homo sapiens, UniProt Q9NXA8); test: PDC deacylation assay: PDHA1 desuccinylation by recombinant Sirt5; assay type: biochemical; settings: 100 μM compound, PDHA1 from porcine heart tissue
# T4 sequence (Q9NXA8 37-310): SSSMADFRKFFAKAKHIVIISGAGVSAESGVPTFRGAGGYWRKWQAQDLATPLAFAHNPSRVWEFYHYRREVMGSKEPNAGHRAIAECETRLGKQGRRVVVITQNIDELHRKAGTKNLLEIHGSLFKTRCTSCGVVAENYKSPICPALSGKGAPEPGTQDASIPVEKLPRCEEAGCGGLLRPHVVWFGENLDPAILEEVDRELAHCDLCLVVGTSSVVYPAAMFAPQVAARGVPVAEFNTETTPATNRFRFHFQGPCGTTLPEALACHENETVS
# [7] = system: mouse embryonic fibroblasts (MEFs); test: Mitochondrial mass by FACS; assay type: cell-based; settings: 25 μM, 24 h
# [8] = target: T5, Sirt2 (Homo sapiens, UniProt Q8IXJ6); test: Coupled enzymatic deacetylation assay, Sirt2 with α-tubulin-acK25 peptide; assay type: biochemical; settings: for Sirt2 activation (α-tubulin-acK25 deacetylation): 100 μM compound; for Effect on Sirt2 activity (in words): coupled assay, 10 and 100 μM compound
# T5 sequence (Q8IXJ6 43-356): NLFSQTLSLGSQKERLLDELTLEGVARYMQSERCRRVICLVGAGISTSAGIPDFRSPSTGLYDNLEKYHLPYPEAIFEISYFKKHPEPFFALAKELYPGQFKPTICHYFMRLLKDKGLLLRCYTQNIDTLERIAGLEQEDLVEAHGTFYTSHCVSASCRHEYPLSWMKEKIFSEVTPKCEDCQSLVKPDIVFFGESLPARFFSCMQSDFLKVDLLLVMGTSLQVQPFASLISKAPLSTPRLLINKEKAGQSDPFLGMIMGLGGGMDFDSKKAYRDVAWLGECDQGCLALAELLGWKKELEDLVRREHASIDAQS
# [9] = target: T4, Sirt5; settings: cited from earlier work
# [10] = system: GOT1 acetylation; test: GOT1 acetylation Western blot in pancreatic cancer cell lines; assay type: cell-based
# [11] = system: glutaminase (GLS); test: GLS activity assay in MDA-MB-231 cell lysates; assay type: cell-based, human; settings: MDA-MB-231 cells, 50 μM, 4 and 24 h
# [12] = system: GDH; test: GDH activity assay in MDA-MB-231 cell lysates; assay type: cell-based, human; settings: wild-type MDA-MB-231 cells, 50 μM, 4 or 24 h
# [13] = system: MDA-MB-231 cells; test: Ammonia level assay, MDA-MB-231 cells; assay type: cell-based, human; settings: 50 μM, 4 and 24 h
compound,measurement,setting,value
"CCOC(=O)C1=CN(Cc2cc(OC)c(OC)c(OC)c2)C=C(C(=O)OCC)C1c1cnc2ccccc2c1 [Compound 26, Diethyl 4-(Quinolin-3-yl)-1-(3,4,5-trimethoxybenzyl)-1,4-dihydropyridine-3,5-dicarboxylate]",Effect on Sirt3 activity (in words),[1],lost their effects towards Sirt3
CCOC(=O)C1=CN(C(=O)c2ccccc2)C=C(C(=O)OCC)C1c1ccccc1OC [Compound 18],Effect on Sirt5 activity (in words),[2],specific Sirt5 activation
CCOC(=O)C1=CN(C(=O)c2cnc3ccccc3n2)C=C(C(=O)OCC)C1c1ccccc1 [Compound 24],Sirt5 activation (CPS1-succK537 desuccinylation),[2]; 10 μM compound,1.2- to 1.5 fold
same,Sirt5 activation (CPS1-succK537 desuccinylation),[2]; 100 μM compound,2- to 3 fold and 2.5 fold
same,Effect on Sirt3 activity (in words),[1],comparable to the parent compound
"CCOC(=O)C1=CN(Cc2cc(OC)c(OC)c(OC)c2)C=C(C(=O)OCC)C1c1ccccc1 [Compound 25, Diethyl 4-Phenyl-1-(3,4,5-trimethoxybenzyl)-1,4-dihydropyridine-3,5-dicarboxylate]",Effect on Sirt3 activity (in words),[1],lost their effects towards Sirt3
CCOC(=O)C1=CN(C(=O)c2ccccc2)C=C(C(=O)OCC)C1c1ccc(C)cc1 [Compound 17],Effect on Sirt5 activity (in words),[2],specific Sirt5 activation
CCOC(=O)C1=CN(C(=O)c2ccccc2)C=C(C(=O)OCC)C1c1ccccc1 [Compound 11],MnSOD-Lys68 acetylation,"[3]; MDA-MB-231 cells, 50 μM",decrease in MnSOD-Lys68 acetylation
same,MnSOD-Lys68 acetylation,"[3]; Sirt3 silenced MDA-MB-231 cells, 16 h",did not decrease MnSOD-Lys68 acetylation
same,FdL deacetylation (Sirt3) activity in cell lysates,[4],significant increase in FdL deacetylation activity
same,GDH overall Lys acetylation,[5],decreased acetylation levels
same,pEC50,[1],3.70 to 4.00
same,Sirt3 activity,[1]; 100 μM compound,over 300%
CCOC(=O)C1=CN(C(=O)c2ccccc2)C=C(C(=O)OCC)C1c1cccc(Cl)c1 [Compound 13],Sirt5 activation (CPS1-succK537 desuccinylation),[2]; 10 μM compound,1.2- to 1.5 fold
same,Sirt5-dependent desuccinylation of PDHA1,[6],clearly enhanced
CCOC(=O)C1=CN(C(=O)c2cccc3ccccc23)C=C(C(=O)OCC)C1c1ccccc1 [Compound 21],Sirt5 activation (CPS1-succK537 desuccinylation),[2]; 100 μM compound,2- to 3 fold
same,Effect on Sirt5 activity (in words),[2],specific Sirt5 activation
CCOC(=O)C1=CN(Cc2ccccc2)C=C(C(=O)OCC)C1c1cnc2ccccc2c1 [Compound 10],Effect on mitochondrial mass,[7]; Sirt3 knock-out MEFs,no significant compound effect
same,Increase of mitochondrial mass,[7]; wild-type MEFs,about 2.5 fold
same,Effect on Sirt3 activity (in words),[1],Sirt3 activation; also recorded: comparable to the parent compound
CCOC(=O)C1=CN(C(=O)c2ccccc2)C=C(C(=O)OCC)C1c1ccc(Cl)cc1 [Compound 14],Sirt5 activation (CPS1-succK537 desuccinylation),[2]; 10 μM compound,1.2- to 1.5 fold
"CCOC(=O)C1=CN(C(=O)c2ccccc2)C=C(C(=O)OCC)C1c1ccoc1 [Compound 28, Diethyl 1-Benzoyl-4-(furan-3-yl)-1,4-dihydropyridine-3,5-dicarboxylate]",Sirt5 activation (CPS1-succK537 desuccinylation),[2]; 100 μM compound,3- to 3.5 fold
CCOC(=O)C1=CN(C(=O)c2ccccc2)C=C(C(=O)OCC)C1c1ccc(OC)cc1 [Compound 20],Sirt5 activation (CPS1-succK537 desuccinylation),[2]; 10 μM compound,1.2- to 1.5 fold
"CCOC(=O)C1=CN(C(=O)c2cc(OC)c(OC)c(OC)c2)C=C(C(=O)OCC)C1c1cccc(N)c1 [Compound 38, Diethyl 4-(3-Aminophenyl)-1-(3,4,5-trimethoxybenzoyl)-1,4-dihydropyridine-3,5-dicarboxylate]",Sirt5 activation (CPS1-succK537 desuccinylation),[2]; 100 μM compound,3- to 3.5 fold and 3.5 fold
same,Sirt2 activation (α-tubulin-acK25 deacetylation),[8],2 fold
"CCOC(=O)C1=CN(C(=O)c2cc(OC)c(OC)c(OC)c2)C=C(C(=O)OCC)C1c1ccco1 [Compound 40, Diethyl 4-(Furan-2-yl)-1-(3,4,5-trimethoxybenzoyl)-1,4-dihydropyridine-3,5-dicarboxylate]",Effect on Sirt2 activity (in words),[8],smaller effects
CCOC(=O)C1=CN(C(=O)c2ccccc2)C=C(C(=O)OCC)C1c1cccc(OC)c1 [Compound 19],Sirt5 activation (CPS1-succK537 desuccinylation),[2]; 10 μM compound,1.2- to 1.5 fold
same,Effect on Sirt5 activity (in words),[2],specific Sirt5 activation
same,In vitro Sirt5 deacetylase activity,[9],increase in vitro Sirt5 deacetylase activity
same,GOT1 acetylation,"[10]; S2–013 and Capan1 cell lines, 20 μM, 24 h",decrease GOT1 acetylation
same,Effect on GOT1 acetylation,[10]; SIRT5 knockout KPC and KPCS cell lines,negligible
same,GLS activity in cell lysates,[11],decreased GLS activity
same,GDH activity in cell lysates,[12],decreased GDH activity
same,Ammonia accumulation,[13],blocked ammonia accumulation
CCOC(=O)C1=CN(C(=O)c2ccccc2)C=C(C(=O)OCC)C1c1cccc(C)c1 [Compound 16],GLS activity in cell lysates,[11],no such effects
same,GDH activity in cell lysates,[12],no significant changes in GDH activity
same,Ammonia accumulation,[13],no such effects
CCOC(=O)C1=CN(Cc2ccccc2)C=C(C(=O)OCC)C1c1nccs1 [Compound 7],Effect on Sirt3 activity (in words),[1],Sirt3 activation; also recorded: comparable to the parent compound
CCOC(=O)C1=CN(C(=O)c2ccc3ccccc3c2)C=C(C(=O)OCC)C1c1ccccc1 [Compound 22],Effect on Sirt3 activity (in words),[1],comparable to the parent compound
same,Sirt2 activation (α-tubulin-acK25 deacetylation),[8],less than 1.5 fold
CCOC(=O)C1=CN(Cc2ccccc2)C=C(C(=O)OCC)C1c1ccc(-c2ccccc2)cc1 [Compound 2],Effect on Sirt5 activity (in words),[2],Sirt5 activation
CCOC(=O)C1=CN(Cc2ccccc2)C=C(C(=O)OCC)C1c1ccco1 [Compound 5],Sirt2 activation (α-tubulin-acK25 deacetylation),[8],less than 1.5 fold
same,Effect on Sirt2 activity (in words),[8],weak Sirt2 activation
CCOC(=O)C1=CN(Cc2ccccc2)C=C(C(=O)OCC)C1c1cc2ccccc2s1 [Compound 9],Sirt5 activation (CPS1-succK537 desuccinylation),[2]; 100 μM compound,2- to 3 fold
same,Effect on Sirt5 activity (in words),[2],Sirt5 activation
CCOC(=O)C1=CN(Cc2ccccc2)C=C(C(=O)OCC)C1c1cccc2ccccc12 [Compound 3],Effect on Sirt5 activity (in words),[2],Sirt5 activation
CCOC(=O)C1=CN(C(=O)c2cnccn2)C=C(C(=O)OCC)C1c1ccccc1 [Compound 23],Sirt5 activation (CPS1-succK537 desuccinylation),[2]; 10 μM compound,1.2- to 1.5 fold
same,Sirt5 activation (CPS1-succK537 desuccinylation),[2]; 100 μM compound,2- to 3 fold
same,Effect on Sirt5 activity (in words),[2],specific Sirt5 activation
"CCOC(=O)C1=CN(C(=O)c2cc(OC)c(OC)c(OC)c2)C=C(C(=O)OCC)C1c1ccoc1 [Compound 41, Diethyl 4-(Furan-3-yl)-1-(3,4,5-trimethoxybenzoyl)-1,4-dihydropyridine-3,5-dicarboxylate]",Effect on Sirt2 activity (in words),[8],smaller effects
CCOC(=O)C1=CN(Cc2ccccc2)C=C(C(=O)OCC)C1c1ccc2ccccc2c1 [Compound 4],Sirt5 activation (CPS1-succK537 desuccinylation),[2]; 10 μM compound,1.2- to 1.5 fold
same,Effect on Sirt5 activity (in words),[2],Sirt5 activation
"CCOC(=O)C1=CN(C(=O)c2ccccc2)C=C(C(=O)OCC)C1c1ccco1 [Compound 27, Diethyl 1-Benzoyl-4-(furan-2-yl)-1,4-dihydropyridine-3,5-dicarboxylate]",Sirt5 activation (CPS1-succK537 desuccinylation),[2]; 100 μM compound,about 2 fold
